Here are results for 6 compounds from paper PMC8650031, “Santin and cirsimaritin from Betula pubescens and Betula pendula buds induce apoptosis in human digestive system cancer cells” (Journal of Cellular and Molecular Medicine, 2021).

In assay [1] the test system is gastric adenocarcinoma AGS cells. Kind of assay: MTT cell viability assay, AGS cells. In kind it is cell-based, human. Conditions: for IC50: Homo sapiens, MTT; for reduction in viability: 100 μM. On the procedure: (§1) Viability of cells was determined using the MTT assay. Cells were plated in 96‐well plates at 1 × 10^4 cells per well and allowed to adhere for 24 h. […] MTT (3‐(4,5‐Dimethyl‐2‐thiazolyl)‐2,5‐diphenyl‐2H‐tetrazolium bromide, Sigma‐Aldrich, USA) solution was added to each well, and cells were incubated at 37°C for 4 h. The medium was then removed, and formazan crystals were dissolved in 100 μL of DMSO and 12.5 μL of Sorensen's glycine buffer on a plate shaker. Absorbance was measured at 570 nm using a microplate reader. IC50 values were calculated using GraphPad Prism software.

In assay [2] the test system is colorectal adenocarcinoma DLD‐1 cells. Kind of assay: MTT cell viability assay, DLD-1 cells. In kind it is cell-based, human. The following applies: for IC50: Homo sapiens, MTT; for reduction in viability: DLD-1, 100 μM. On the procedure: as §1
A general note: Formazan colour is commonly taken as a measure of viable cells.

The subject of assay [3] is HepG2 cells. Kind of assay: Annexin V/propidium iodide apoptosis assay, HepG2. It is filed as cell-based, human. The following applies: HepG2, 50 μM, 48 h. The method, then: (§2) Cells were seeded at a density of 1 × 10^5 cells per well in 6-well plates and allowed to adhere for 24 h. Cells were treated with various concentrations of flavonoids (12.5, 25, 50 and 100 μM) for 48 h. Floating and adherent cells were collected and assayed using a Dead Cell Apoptosis Kit with annexin V-fluorescein isothiocyanate (FITC) and propidium iodide (PI), for flow cytometry (#V13242, Thermo Fisher Scientific, USA), according to the manufacturer’s protocol. Briefly, cells were dispersed in 100 μL annexin-binding buffer containing 5 μL annexin V-FITC conjugate solution, 1 μg/mL PI and 1 μg/mL Hoechst 33342, and incubated for 15 min at room temperature. Then 400 μL of annexin-binding buffer was added, and the cell suspension was transferred to 96-well plates and visualised using fluorescence microscopy on a BD Pathway 855 system (Becton Dickinson, USA). Early […]
(§3) red and blue fluorescence. […]

For assay [4], the system named is AGS cells. Kind of assay: [3H]-thymidine incorporation (DNA biosynthesis), AGS. The following applies: 50 μM, 48 h. It is filed as cell-based, human. On the procedure:
(§4) Cells were plated in 24‐well plates at 4 × 10^4 cells per well and allowed to adhere for 24 h. Cells were treated with the various concentrations of flavonoids (25, 50 and 100 μM) in 1 mL medium containing 0.5 μCi [^3H]‐thymidine (#MT6037, Hartmann Analytic, Germany) for 48 h. Medium was discarded, and cells were rinsed three times with phosphate buffered saline (PBS), and solubilized with 1 mL of 0.1 M sodium hydroxide containing 1% sodium dodecyl sulphate. Then, 9 mL of scintillation liquid (PerkinElmer, USA) was added, and radioactivity incorporated into DNA was measured using a scintillation counter.
In general terms: Incorporation of labelled thymidine or its analogues reports DNA synthesis.

The test system of assay [5] is DLD‐1 cells. Kind of assay: Colony formation assay, DLD-1. In kind it is cell-based, human. The following applies: DLD-1, 12.5 μM, 48 h treatment then 7 days culture. The method, then: (§5) 2.5. Colony formation assay
(§6) In total, 250 cells were plated in each well of 12-well plates and allowed to adhere for 24 h.
(§7) Cells were treated with various concentrations of flavonoids (3.125, 6.25, 12.5, 25, 50 and 100 μM) for 48 h. Medium was discarded and fresh medium was added. After seven days, culture medium was removed and cells were washed once with PBS. Then, cells were fixed with 4% formaldehyde and stained with 0.1% crystal violet. […]

The subject of assay [6] is AGS cells. Nature of the assay: Annexin V/propidium iodide apoptosis assay, AGS. It is filed as cell-based, human. The following applies: 50 μM, 48 h. The method, then:
as §2, §3

Assay [7] deals with DLD‐1 cells. Nature of the assay: [3H]-thymidine incorporation (DNA biosynthesis), DLD-1. It is filed as cell-based, human. The following applies: DLD-1, 50 μM, 48 h. The method, then:
as §4

In the next assay the test system is p53 in AGS cells. Kind of assay: p53 expression by Western blot and fluorescence microscopy, AGS. It is filed as cell-based, human. The following applies: 48 h treatment. The method, then:
(§8) Cells were seeded at a density of 1 × 10^5 cells per well in 6-well plates and allowed to adhere for 24 h. Cells were treated with various concentrations of flavonoids (12.5, 25, 50 and 100 […]
(§9) Adherent and floating cells were harvested and sonicated. Obtained homogenates were supplemented with 1% protease and phosphatase inhibitor cocktail (#78440, Thermo Fisher Scientific, USA). A Lowry assay was performed to quantify protein content in the homogenates. Proteins (20–40 μg) were resolved on 7.5%, 10% or 12% SDS-PAGE gels using the Mini-Protean Tetra system (Bio-Rad, USA). Proteins were transferred to nitrocellulose membranes (Bio-Rad, USA) using the Mini Trans-Blot Cell wet blotting system (Bio-Rad, USA). Membranes were blocked with 5% skim milk for 1 hour at room temperature and probed overnight at 4 °C with primary antibodies. The following antibodies […]
(§10) 1:1000), purchased from Cell Signaling Technology (USA); anti-p53 antibody (#sc-126, […]
(§11) 1:500) obtained from Santa Cruz Biotechnology (USA); and anti-actin antibody (#A2066, 1:2000) purchased from Sigma-Aldrich (USA). After extensive washes, a secondary antibody solution in 5% skim milk (anti-mouse IgG-HRP, Sigma-Aldrich, #A9044, 1:5000; anti-rabbit IgG-HRP, Sigma-Aldrich, #A9169, 1:5000) was added for 1 h at room temperature.
(§12) Membranes were incubated with ECL-HRP substrate (GE Healthcare, USA) and the signal was detected using the BioSpectrum Imaging System (Ultra-Violet Products, Ltd., UK).
(§13) 2.8. Immunofluorescence microscopy
(§14) Cells were plated in 96-well plates at 1 × 10^4 cells per well and allowed to adhere for 24 h.
(§15) Cells were treated with the respective concentration of flavonoids and incubated for 48 h. […]
(§16) The mass spectrometric detector was calibrated by analyzing flavonoid solutions in the concentration range 0.06‒2.0 mg/ml in the mode of selective monitoring of the most intense ions (M+ ‒ CH3) in the spectra of TMS derivatives of the determined components (Table S1).

For assay [8], the system named is DLD‐1 cells. Nature of the assay: Annexin V/propidium iodide apoptosis assay, DLD-1. In kind it is cell-based, human. Conditions: DLD-1, 50 μM, 48 h. The method, then: as §2, §3
Assay [9] deals with HepG2 cells. Kind of assay: [3H]-thymidine incorporation (DNA biosynthesis), HepG2. The following applies: HepG2, 50 μM, 48 h. In kind it is cell-based, human. The method, then: as §4
The test system of assay [10] is HepG2 cells. Kind of assay: Colony formation assay, HepG2. It is filed as cell-based, human. The following applies: HepG2, 12.5 μM, 48 h treatment then 7 days culture. The method, then:
as §5, §6, §7

Assay [11] has as its system normal human skin fibroblasts (CCD25Sk). Nature of the assay: MTT cell viability assay, normal fibroblasts. Conditions: Skin fibroblast. It is filed as cell-based. The method, then: as §1
The subject of assay [12] is hepatocellular carcinoma HepG2 cells. Nature of the assay: MTT cell viability assay, HepG2 cells. In kind it is cell-based, human. Conditions: for IC50: Homo sapiens, MTT; for reduction in viability: HepG2, 100 μM. On the procedure: as §1
Another assay has as its system p53 in DLD‐1 cells. Kind of assay: p53 expression by Western blot and fluorescence microscopy, DLD-1. It is filed as cell-based, human. Conditions: DLD-1, 48 h treatment. The method, then: as §8, §9, §10, §11, §12, §13, §14, §15, §16
In a further assay the test system is p53 in HepG2 cells. Kind of assay: p53 expression by Western blot and fluorescence microscopy, HepG2. It is filed as cell-based, human. The following applies: HepG2, 48 h treatment. The method, then:
as §8, §9, §10, §11, §12, §13, §14, §15, §16
For orientation: A western blot detects proteins with antibodies after separation by electrophoresis.

Assay [13] concerns AGS cells. Nature of the assay: Colony formation assay, AGS. It is filed as cell-based, human. Conditions: 12.5 μM, 48 h treatment then 7 days culture. On the procedure:
as §5, §6, §7

Molecules are shown by their SMILES.

Broadly, the IC50 is the midpoint of a concentration-inhibition curve. High values mean weaker potency, low ones greater potency. In the case of `O=c1cc(-c2ccc(O)cc2)oc2cc(O)cc(O)c12` [apigenin, reference compound], the IC50 in [1] (24 h) is > 50 µM; in assay [1] (48 h), 18.2 ± 1.3 µM; in [1] (72 h) it was 23.4 ± 1.4 µM; in assay [2] (DLD-1, 24 h) it was > 50 µM; in [2] (DLD-1, 48 h), 43.6 ± 2 µM; in assay [2] (DLD-1, 72 h), > 50 µM. The concentration for half-maximal inhibition (IC50) in assay [11] (24 h) was > 50 µM; in assay [11] (48 h), > 50 µM; in assay [11] (72 h) it was > 50 µM; in assay [12] (HepG2, 24 h), > 50 µM; in [12] (HepG2, 48 h), > 50 µM; in [12] (HepG2, 72 h), 37.9 ± 2.9 µM. For the same compound, the “percentage of cells in the early stage of apoptosis” value with HepG2 cells [3] was 20.5%; in the assay on AGS cells [6], 71.2%; with DLD‐1 cells [8], 29.7%. Besides, the “percentage of cells in the late stage of apoptosis” value is recorded as 12.3% with HepG2 cells [3], 9.6% with AGS cells [6] and 9.4% with DLD‐1 cells [8]. Also, the “reduction of [3H]-thymidine incorporation” value with AGS cells [4] worked out at 56.2%; with DLD‐1 cells [7], 17.7%; in the assay with HepG2 cells [9], 85.4%. For the same compound, the “decrease in number of colonies” value in the assay with DLD‐1 cells [5] is 23.5%; with HepG2 cells [10], 61.8%; with AGS cells [13], 13.2%. For the same compound, the p53 level result with p53 in AGS cells, in the assay with p53 in DLD‐1 cells and in the assay on p53 in HepG2 cells was “up‐regulated” each time.
For `COc1ccc(-c2cc(=O)c3c(O)cc(OC)cc3o2)cc1` [apigenin−7,4'‐O‐dimethyl ether, apigenin 7,4'‐O‐dimethyl ether], the figures for the half-inhibitory concentration (IC50) in assay [11] (24 h), in [11] (48 h) and in assay [11] (72 h) were 23.6 ± 2.2 µM, 12.9 ± 0.5 µM and 19.7 ± 1.3 µM, respectively.
Take `COc1cc2oc(-c3ccc(O)cc3)cc(=O)c2c(O)c1OC` [cirsimaritin]: the IC50 is 31.7 ± 2.4 µM in [1] (48 h); 17.1 ± 1.4 µM in assay [1] (72 h); > 50 µM in [11] (24 h); > 50 µM in [11] (48 h); > 50 µM in [11] (72 h). Also, the “percentage of cells in the early stage of apoptosis” value stood at 51.2% in the assay with HepG2 cells [3], 37.0% in the assay on AGS cells [6] and 51.5% with DLD‐1 cells [8]. Also, the “percentage of cells in the late stage of apoptosis” value is on record as 5.4% with HepG2 cells [3], 7.4% with AGS cells [6] and 15.5% in the assay on DLD‐1 cells [8]. The “reduction of [3H]-thymidine incorporation” value in the assay on AGS cells [4] was 24.5%; in the assay on DLD‐1 cells [7], 10.0%; in the assay with HepG2 cells [9], 53.6%. Further, the p53 level result in the assay on p53 in AGS cells was “increased significantly”; in the assay on p53 in DLD‐1 cells, “decreased”; with p53 in HepG2 cells, “increased significantly”. Besides, in the assay with AGS cells [13], the “decrease in number of colonies” value was 75.7%.
Turning to `COc1ccc(-c2oc3cc(O)cc(O)c3c(=O)c2OC)cc1` [ermanin], the reduction in viability result in assay [1] (48 h), in assay [1] (72 h), in assay [2] (48 h), in [2] (72 h), in assay [12] (48 h) and in assay [12] (72 h) was “over 80%” each time. Moreover, the IC50 was 49.3 ± 3.3 µM in assay [1] (48 h); 44.5 ± 3.1 µM in [1] (72 h); 49.3 ± 2.5 µM in assay [2] (DLD-1, 48 h). For the same compound, the results for the “reduction of [3H]-thymidine incorporation” value in the assay with AGS cells [4], in the assay on DLD‐1 cells [7] and with HepG2 cells [9] were 28.2%, 29.1% and 85.2%, respectively.
`COc1cc(O)c2c(=O)c(OC)c(-c3ccc(O)cc3)oc2c1` [kumatakenin] had an IC50 in [11] (72 h) of 41.6 ± 3.5 µM.
The compound `O=c1c(O)c(-c2ccc(O)c(O)c2)oc2cc(O)cc(O)c12` [quercetin] returned a concentration for half-maximal inhibition (IC50) in [1] (72 h) of 28.4 ± 2.5 µM.
